Patent US20090082260A1, “COMBINATION OF AN IMMUNOSUPPRESSANT AND A PPAR GAMMA AGONIST FOR THE TREATMENT OF AN UNDESIRABLE IMMUNE RESPONSE” (priority 2005, published 2009)

Tested on: cardiac allograft
Assay: Cardiac allograft rejection in rats: long term graft survival
Assay type: in vivo, rat
Details: for Mean Survival Time, extended data set: Table 10b
Protocol: Animals were obtained from the Animal Resources Centre, Australia. The rats were allowed free access to food and water in a 12-hour light/12-hour dark cycled room. The experimental protocol was approved by the Committee on the Use of Live Animals in Teaching and Research, University of Hong Kong.
Six rats were used in each treatment group.
Recipient rats in TGA received hearts harvested from donor […] strain rats.
Graft survival was analysed using a chi-squared test.
Example 3 was extended to include a number of alternative treatment groups and additional numbers of animals in certain of the treatment groups already investigated.
Table 10b below summarises the graft survival rates, including both the original and supplemental data.

## CN(CCOc1ccc(CC2SC(=O)NC2=O)cc1)c1ccccn1 (centres unmarked) [rosiglitazone, 5-[4-[2-(N-methyl-N-(2-pyridyl)amino)ethoxy]benzyl]thiazolidine-2,4-dione]
PPAR-gamma agonist alone at a high dose (TGF, 20 mg/kg/day)
  Graft survival compared with untreated subjects (TGE): does not show any notable difference
PPAR-gamma agonist alone at a medium dose (TGB, 5 mg/kg/day)
  Graft survival compared with untreated subjects (TGE): does not show any notable difference
Table 10, TGA cyclosporin A 20 mg/kg/day i.p. 14 days, TGB rosiglitazone 5 mg/kg/day oral to day 120, TGC both, n=6
  Mean Survival Time: 15.8 days
TGA cyclosporin A 20 mg/kg/day i.p. 14 days, TGB rosiglitazone 5 mg/kg/day oral, TGC both
  Mean Survival Time, extended data set: 15.8 days
TGF high dose rosiglitazone 20 mg/kg/day oral only, n=6
  Mean Survival Time, extended data set: 18.8 days
